Some results are limits rather than exact numbers.

The test system of series [1] is human colon (Col2) cancer cells. The conditions noted are these: sulforhodamine B assay, incubation 24 h longer than the 48-h assay; cited from earlier work. A general note: Sulforhodamine B stains cellular protein and so reports cell mass.
The test system of series [2] is human breast cancer cells (MCF-7). The conditions noted are these: sulforhodamine B assay, incubation 24 h longer than the 48-h assay; cited from earlier work.
In series [3] the test system is human fibrosarcoma cell line HT1080. As to conditions: sulforhodamine B assay, incubation 24 h longer than the 48-h assay; cited from earlier work.
The next series concerns A549 lung cancer cells. The conditions noted are these: sulforhodamine B assay, incubation 24 h longer than the 48-h assay; cited from earlier work.
Series [4] deals with human gastric (SNU-638) cancer cells. As to conditions: sulforhodamine B assay, incubation 24 h longer than the 48-h assay; cited from earlier work.
The next series deals with leukemia cells (HL60). As to conditions: sulforhodamine B assay, incubation 24 h longer than the 48-h assay; cited from earlier work.
The nature of series [5]: Storage stability in DMEM, LC-MS/MS after DMEM extraction. The class given is physicochemical. The conditions noted are these: for Stability 4 °C / Stability AS (autosampler) / Stability −20 °C / Stability BT (benchtop): 24 h; for Stability FT (freeze-thaw): freeze-thaw cycles; for Stability −80 °C 91 d: long-term freezing; for Stability BT (benchtop): room temperature. How it is done:
(§1) To assess stability, low and high concentrations of all analytes were subjected to different storage conditions. […] For determination of long-term stability, samples were stored in either plasma or DMEM at –80 °C for 90 and 91 days, respectively. To measure short-term stability, samples were stored at room temperature, in an autosampler, at 4 °C, and at –20 °C for 24 h. In addition, freeze-thaw cycles were performed according to FDA guidance for the standard solutions. For comparison, at least three freshly prepared samples were prepared for each concentration level. With the exception of autosampler stability, the internal standard was always added to all samples before sample processing was started.
Regarding the medium, validation procedures were performed with high-glucose DMEM supplemented with 100 U/mL penicillin and 100 μg/mL streptomycin, but not with FBS. With the exception of selectivity, where both media (GlutaMAX™-I or UltraGlutamine^TM I supplement) were tested, only Gibco™ DMEM with GlutaMAX™-I was used for all other analytical procedures.
(§2) Liquid-liquid extraction was performed identically for plasma and DMEM samples. After addition of the 1.0 µM internal standard, 50 µL of 0.8 M alkaline carbonate buffer was added. The extraction was performed once with 890 µL ethyl acetate. Tubes were then shaken for 10 min at 1400 rpm using a Thermomixer 5436 (Eppendorf AG, Hamburg, Germany) followed by centrifugation for 5 min at 14,000 rpm using a Centrifuge 5415 C (Eppendorf AG, Hamburg, Germany). Subsequently, 850 µL of the supernatant was transferred to a new tube and evaporated to dryness for 35 min at 35 °C (8 min heating time) using a SpeedVac SPD130DLX (Thermo Fisher Scientific, Asheville, NC, USA). Reconstitution was performed with 200 µL of a acetonitrile/water/H2SO4 [3/0.5/0.5] mixture, shaken at 1400 rpm for 5 min, and centrifuged again at 14,000 rpm for 5 min. Finally, 155 µL of the sample was transferred to an LC vial and analyzed.
(§3) To assess stability, low and high concentrations of all analytes were exposed to different storage conditions. To determine long-term stability, samples were stored in either plasma or DMEM at −80 °C for 90 and 91 days, respectively. To determine short-term stability, samples were stored for 24 h on the bench at room temperature, in the autosampler, at 4 °C, and at −20 °C. In addition, freeze-thaw cycles were performed for the standard solutions according to FDA guidance. At least three freshly prepared samples per concentration level were prepared for comparison. With the exception of the stability test in the autosampler, the internal standard was always added to all samples before sample processing was started. However, to avoid concentration fluctuations due to possible degradation of the analytes, stock solutions were prepared twice a week and stored at −20 °C. Each storage condition was examined in the dark. For all conditions studied, n = 3–6 replicates were prepared.

Series [6] is described as follows: Storage stability in human plasma, LC-MS/MS after plasma precipitation. The class given is in vitro ADME. As to conditions: for Stability 4 °C / Stability AS (autosampler) / Stability −20 °C / Stability BT (benchtop): 24 h; for Stability FT (freeze-thaw): freeze-thaw cycles; for Stability BT (benchtop): room temperature. How it is done:
as §1
After mixing the 1.5 µM internal standard and the plasma sample, protein precipitation was commenced. Next, 190 µL of acetonitrile and 50 µL of 0.5 M sulfuric acid buffer were added. The tubes were then shaken at 1400 rpm for 5 min followed by centrifugation at 14,000 rpm for 5 min. Subsequently, 195 µL of the supernatant was transferred to an LC tube and analyzed.
as §3

Series [7] in a line: Storage stability in human plasma, LC-MS/MS after plasma extraction. The series is classed as in vitro ADME. The conditions noted are these: for Stability 4 °C / Stability AS (autosampler) / Stability −20 °C / Stability BT (benchtop): 24 h; for Stability FT (freeze-thaw): freeze-thaw cycles; for Stability −80 °C 90 d: long-term freezing; for Stability BT (benchtop): room temperature. How it is done:
as §1, §2, §3

Series [8] in a line: Storage stability in human plasma, LC-MS/MS after plasma precipitation. The class given is in vitro ADME. As to conditions: long-term freezing.
In the next series the test system is U138MG (glioblastoma). Briefly: WST-1 cell viability assay, 48-h incubation. The class given is cell-based, human. As to conditions: WST-1, 48 h. As to the method:
(§4) To test the biological activity of the thia-analogous indirubin N-glycosides that are the focus of the present work, the effects of KD87 and KD85 and their non-glycosylated parent compound KD88 on the viability of various tumor cell lines were initially investigated. The corresponding analyses were performed using the cell lines A375 (melanoma), A431 (skin squamous cell carcinoma), A549 (non-small cell lung carcinoma), U251MG (glioblastoma), and U138MG (glioblastoma).
(§5) Figure 2 Effect of increasing concentrations of KD87 (A), KD85 (B), and KD88 (C) on viability of various cancer cells. A375 (melanoma; black columns), A431 (skin squamous cell carcinoma; dark grey columns), A549 (non-small cell lung carcinoma; grey columns), U251MG (glioblastoma; light grey columns), or U138MG (glioblastoma; white columns) were incubated for 48 h with the appropriate compounds or vehicle followed by determination of cell viability by WST-1 assay. Percent control represents comparison with vehicle-treated cells (100%) in the absence of test substance. Values are mean ± standard error of the mean (SEM) of n = 15 in all panels, except n = 14 for A375 and A431 cells in panel B and n = 14–15 for A375 cells in panel C, from four (A375, A431) or five (A549, U251MG, U138MG) independent experiments. * p ≤ 0.05, ** p ≤ 0.01, *** p ≤ 0.001, **** p ≤ 0.0001 vs. vehicle control; one-way ANOVA with Dunnett’s post hoc test.
(§6) The human melanoma cell line A375 (#300110; RRID:CVCL_0132) as well as the human skin epidermoid carcinoma cell line A431 (#300112; RRID:CVCL_0037) were purchased from CLS Cell Lines Service GmbH (Eppelheim, Germany). The human glioblastoma cell line U251MG (#09063001; RRID:CVCL_0021) was from Sigma-Aldrich Corporation. The human glioblastoma cell line U138MG (#ACC 291; RRID: CVCL_0020) and the human lung carcinoma cell line A549 (#ACC 107, RRID:CVCL_0023) were purchased from DSMZ (Deutsche Sammlung von Mikroorganismen und Zellkulturen GmbH, Braunschweig, Germany).
(§7) Cells were cultured in high-glucose DMEM (with GlutaMAX™-I: A375, A431; with UltraGlutamine^TM I: A549, U251MG, U138MG) supplemented with 10% heat-inactivated FBS, 100 U/mL penicillin, and 100 μg/mL streptomycin and grown in a humidified incubator at 37 °C and 5% CO2. For viability analyses, cells were seeded in 96-well plates at a density of 5000 cells per well in DMEM containing 10% heat-inactivated FBS and cultured for 24 h. All cell experiments with the specific substances were performed in serum-free DMEM supplemented with 100 U/mL penicillin and 100 μg/mL streptomycin, applied after washing the cells with DPBS. The test substances were dissolved in DMSO. The final concentration of DMSO in the incubation media of test substance- and vehicle-treated cells was 1% (v/v).
(§8) After completion of the 48-h incubation, WST-1 reagent (Sigma, Taufkirchen, Germany) was added to the cells to achieve a final dilution of 1:10, and the cells were incubated for an additional 20 min before absorbance was measured at 450 nm, reference wavelength […], using a microplate reader.

For a further series, the system named is U251MG (glioblastoma). Description: WST-1 cell viability assay, 48-h incubation. The class given is cell-based, human. The conditions noted are these: WST-1, 48 h. How it is done: as §4, §5, §6, §7, §8
A general note: Tetrazolium dyes change colour on reduction, which living cells bring about.

For series [9], the system named is A431 (skin squamous cell carcinoma). Description: WST-1 cell viability assay, 48-h incubation. The conditions noted are these: A431, WST-1, 48 h. The series is classed as cell-based, human. How it is done: as §4, §5, §6, §7, §8
Another series has as its system A375 (melanoma). Briefly: WST-1 cell viability assay, 48-h incubation. The series is classed as cell-based, human. As to conditions: A375, WST-1, 48 h. As to the method: as §4, §5, §6, §7, §8
Series [10] has as its system A549 (non-small cell lung carcinoma). Description: WST-1 cell viability assay, 48-h incubation. The class given is cell-based, human. As to conditions: A549, WST-1, 48 h. As to the method: as §4, §5, §6, §7, §8

For the compound `O=C1Nc2ccccc2/C1=C1/Nc2ccccc2C1=O` [indirubin], the IC50 in [1] is more than 100 µM; in [2], more than 100 µM; in [3] it was 42 µM; in the series with A549 lung cancer cells, 31 µM; in series [4], more than 100 µM; in the series with leukemia cells (HL60), more than 100 µM.
On to `O=C1Nc2ccccc2/C1=C1/Nc2ccccc2/C1=N\O` [I3M, indirubin-3′-monoxime], for which the “Stability 4 °C” value in [5] (3.0 nM) is 113.8 ± 6.6%; in series [5] (40 nM), 100.4 ± 1.3%; in series [6] (2.0 nM) it was 89.7 ± 1.5%; in series [6] (167 nM) it was 91.5 ± 3.3%; in [7] (3.0 nM) it was 95.9 ± 8.7%; in [7] (250 nM), 94.6 ± 2.2%. In addition, the “Stability AS (autosampler)” value is listed as 65.0 ± 1.3% in series [5] (3.0 nM); 63.6 ± 0.3% in [5] (40 nM); 124.3 ± 9.5% in series [6] (2.0 nM); 112.0 ± 6.8% in [6] (167 nM); 68.0 ± 1.5% in [7] (3.0 nM); 58.5 ± 1.3% in [7] (250 nM). Besides, the “Stability −20 °C” value in series [5] (3.0 nM) stood at 92.0 ± 1.1%; in series [5] (40 nM), 93.1 ± 2.5%; in [6] (2.0 nM), 95.2 ± 3.7%; in series [6] (167 nM) it was 93.7 ± 7.7%; in series [7] (3.0 nM), 93.8 ± 1.9%; in [7] (250 nM) it was 96.5 ± 1.6%. The “Stability FT (freeze-thaw)” value in series [5] (3.0 nM) was 100.0 ± 5.7%; in series [5] (40 nM), 99.5 ± 3.2%; in series [6] (2.0 nM) it was 104.1 ± 5.5%; in [6] (167 nM), 99.7 ± 7.4%; in [7] (3.0 nM), 94.9 ± 4.0%; in series [7] (250 nM), 99.7 ± 1.6%. Moreover, the “Stability −80 °C 91 d” value in [5] (3.0 nM) amounted to 90.6 ± 4.5%; in [5] (40 nM), 99.0 ± 2.7%; in series [8] (2.0 nM), 101.0 ± 9.0%; in series [8] (167 nM), 103.0 ± 3.6%. For the same compound, the “Stability BT (benchtop)” value is recorded as 66.8 ± 2.7% in series [5] (3.0 nM); 59.4 ± 2.4% in [5] (40 nM); 100.1 ± 9.0% in series [6] (2.0 nM); 98.6 ± 4.3% in series [6] (167 nM); 102.2 ± 1.8% in series [7] (3.0 nM); 96.3 ± 7.3% in series [7] (250 nM). The “Stability −80 °C 90 d” value in [7] (3.0 nM) amounted to 96.2 ± 7.2%; in series [7] (250 nM), 100.6 ± 3.0%.
For `O=C1Nc2ccccc2/C1=C1/Sc2ccccc2C1=O` [KD88, 3-[3′-oxo-benzo[b]thiophene-2′-(Z)-ylidene]-oxindole], the “cytotoxic potential (in words)” value (in the series with U138MG (glioblastoma); in the series on U251MG (glioblastoma); in series [9]; in the series on A375 (melanoma); in [10]) was “no cytotoxic potential” in each case.

As a reminder, the IC50 is the concentration at which inhibition is half-maximal.

The record behind these values is PMC9101087, “A Sensitive LC-MS/MS Method for the Simultaneous Determination of Two Thia-Analogous Indirubin N-Glycosides and Indirubin-3′-Monoxime in Plasma and Cell Culture Medium” (Molecules, 2022).
